Source: patent US5244916A, “Inhibition of respiratory burst using posttranslational modification inhibitors” (The Scripps Research Institute, priority 1992, dated 1993)

Key:
[1] = HL-60 cell viability by propidium iodide uptake (flow cytometry); conditions: human, hl-60 cells
Procedure: (§1) HL-60 cells were maintained in stationary culture in RPMI 1640 medium (Gibco, Grand Island, NY) containing 10% fetal bovine serum at 37° C in an atmosphere of 95 air and 5% CO2. The cells (about 8×10^5 /ml) were differentiated into neutrophil-like cells by treatment with 1.3% DMSO for six days (Harris, et al., J. Leukocyte Biol. 37: 407-422 (1985)). […] […] In studies of the protective effect of mevalonic acid, the compound was added as the mevalonolactone (Sigma Chemical Co., St. Louis, MO) at a concentration of 1 mM to the cell culture on days 4 to 6. Similarly, cholesterol was added in the form of LDL prepared according to the method of Curtiss and Edgington (Curtiss, et al., J. Biol. Chem. 257: 15213-15221 (1991)) at a final concentration of 50 μg/ml; ubiquinone (Sigma Chemical Co., St. Louis, MO) was added as Coenzyme Q-10 at a final concentration of 0.5 mM; and dolichol (Sigma Chemical Co., St. Louis, MO) was added as a dispersion in phosphatidylcholine at a final concentration of 0.5 mM (Cutts, et al., J. Cell Physiol. 139: 550-555 (1989)).
(§2) Cell viability was determined by uptake of propidium iodide (537-059; Calbiochem-Behring Corp., La Jolla, CA), detected from the emission fluorescence at 625/35 nm using a DM560 dichronic mirror (Krishan, J. Cell. Biol. 66: 188-192 (1975)). Expression of N-formyl peptide receptor was determined using fluorescein-labeled N-CHONle-Leu-Phe-Nle-Tyr-Lys (Molecular Probes, Inc., Eugene, OR) essentially by the method of Sklar and Finney (Sklar and Finney, Cytometry 3: 161-165 (1982)). Specificity of ligand binding was determined in the presence of 4 mM unlabeled T-boc peptide. CD14 expression was determined using monoclonal antibody 3C10 at a dilution of 1:1,000 (see Goyert and Ferrero, in Leucocyte Typing III: White Cell Differentiation Antigens, McMichael, ed., Oxford Univ. Press, NY, pp. 613-619 (1988)), with detection using a fluorescein-labeled secondary antibody. Flow cytometric analyses were performed on a FACSIV (registered trademark of Becton-Dickinson, San Jose, CA) equipped with a 2W argon laser (Coherent Inc., Palo Alto, collected in list mode and analyzed using the Consort 30 program (Becton-Dickinson, San Jose, CA) after collecting 10,000 events.

HL-60 cells = assay: as above
Procedure: as §1, §2

For `CC[C@H](C)C(=O)O[C@H]1CCC=C2C=C[C@H](C)[C@H](CC[C@@H]3C[C@@H](O)CC(=O)O3)[C@H]21` [compactin], the viability at 0.4 µM [1] was 100 ± 1.6%, the viability at 2 µM [1] was 95 ± 1.2% and the viability at 4 µM [1] was 97 ± 0.9%. For the same compound, the viability at 10 µM [1] was 96 ± 1.2%, the HL-60 cell viability (HL-60 cells; compactin treatment, concentrations of the studies) was “not affected” and the “cell viability when inhibitor added at day 1 of differentiation” value (HL-60 cells; higher concentrations of each drug) was “somewhat decreased”.
